Laboratory results reported in the NIST ThermoML archive (doi:10.1021/je900400v).
± gives the expanded uncertainty stated by the source.

Conditions: Liquid, Closed cell (Static) method

Compound	vapor or sublimation pressure (271.88 K)	vapor or sublimation pressure (295.53 K)	vapor or sublimation pressure (300.47 K)	vapor or sublimation pressure (303.11 K)	vapor or sublimation pressure (306.5 K)	vapor or sublimation pressure (310.48 K)	vapor or sublimation pressure (312.64 K)	vapor or sublimation pressure (318.16 K)	vapor or sublimation pressure (272.33 K)	vapor or sublimation pressure (279.64 K)	vapor or sublimation pressure (299.34 K)	vapor or sublimation pressure (302.24 K)	vapor or sublimation pressure (312.33 K)	vapor or sublimation pressure (317.63 K)
FC(F)(F)C1(F)OC1(F)F (centres undefined) [2,2,3-trifluoro-3-(trifluoromethyl)oxirane]	302.2 ± 1.5 kPa	649.9 ± 2.1 kPa	745.6 ± 2.2 kPa	798.5 ± 2.3 kPa	874.7 ± 2.5 kPa	970.1 ± 2.7 kPa	1024.9 ± 2.9 kPa	1175.3 ± 3.1 kPa						
FC(F)=C(F)C(F)(F)F [hexafluoropropene]									327.1 ± 1.4 kPa	420.7 ± 1.7 kPa	763.3 ± 2.2 kPa	825.7 ± 2.4 kPa	1077.3 ± 2.8 kPa	1232.1 ± 3.1 kPa
